Paper PMC6804107, “Separation and Lipid Inhibition Effects of a Novel Decapeptide from Chlorella pyenoidose” (Molecules, 2019)

Experiments:
[1] = biological target: T1, porcine pancreatic lipase (PL) (Sus scrofa, UniProt P00591); assay: Pancreatic lipase inhibition, Copper soap method; type: biochemical; settings: olive oil substrate, PBS pH 7.38, triplicate
T1 construct: purchased Sigma
T1 sequence (P00591 1-450): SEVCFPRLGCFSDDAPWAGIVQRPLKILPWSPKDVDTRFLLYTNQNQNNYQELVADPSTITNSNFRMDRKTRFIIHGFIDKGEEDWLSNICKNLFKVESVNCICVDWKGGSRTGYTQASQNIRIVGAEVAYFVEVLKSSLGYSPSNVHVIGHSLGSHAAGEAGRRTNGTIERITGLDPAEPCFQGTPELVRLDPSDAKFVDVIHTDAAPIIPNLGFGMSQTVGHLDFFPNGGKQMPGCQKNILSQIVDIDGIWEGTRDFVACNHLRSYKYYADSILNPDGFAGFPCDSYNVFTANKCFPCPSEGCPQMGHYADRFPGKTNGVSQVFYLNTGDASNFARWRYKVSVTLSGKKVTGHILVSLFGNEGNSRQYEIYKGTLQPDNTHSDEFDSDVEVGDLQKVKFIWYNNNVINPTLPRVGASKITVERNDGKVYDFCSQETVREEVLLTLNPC
Procedure: Copper soap method: The lipase activity assay involved a reaction medium (10 mL) containing 1 mg of olive oil, 3 mL 0.0667 mol/L, pH = 7.38 phosphate buffer saline (PBS), and 0.1 mL (C = 1 mg/mL) of lipase in the presence of 1 mL peptides with different concentrations. The peptides solution was prepared by dissolving in the working solution and was then added to reaction mixtures just before the reaction. Control lipase activity was determined without peptides. All samples were analyzed in triplicate. (1) Inhibition%=1−(Aa−A0)−(Ab−A0)/(Aa−A0)×100% where Ab refers to the absorbance value of the normal group; A0 is referred to the absorbance value of blank; and Aa is the absorbance values of the control group.

SREBP-1c = assay: Western blot, SREBP-1c expression; type: cell-based; settings: PP1 600 μg/mL, 3T3-L1 adipocytes
Procedure: (§1) Cells were lysed in Radio Immunoprecipitation Assay (RIPA) buffer for 1 h and then centrifuged at 12,000 rpm for 25 min at 4 °C. The protein concentrations were determined by using a BCA protein assay kit. The supernatants were mixed with 4 × Sodium dodecyl sulfate (SDS) sample buffer and boiled for 10 min. The samples were run on a 4–15% SDS polyacrylamide gel and then transferred to a polyvinylidene difluoride membrane. The membrane was blocked with 5% (w/v) bovine serum albumin (BSA) for 30 min and then incubated with primary antibodies at 4 °C overnight. After washing with Tris-Buffered Saline and Tween 20 (TBST) 3 times, the membranes were washed with TBST and incubated with the secondary antibodies. Signals were detected with a scanner (Thermo Fisher Scientific, Inc.), and the fluorescence intensity was measured using Image software.

PPARγ = assay: Western blot, PPARγ expression; type: cell-based; settings: PP1 600 μg/mL, 3T3-L1 adipocytes
Procedure: as §1

3T3-L1 adipocytes [2] = assay: Lipid accumulation / differentiation in 3T3-L1 cells (Oil Red O); type: cell-based
Procedure: (§2) First, 3T3-L1 cells were cultured in Dulbecco’s modified Eagle’s medium (DMEM) medium containing 10% (v/v) fatal bovine serum (FBS) and 1% antibiotics in a humidified atmosphere of 5% CO2 at 37 °C. For cell toxicity assessment, 3T3-L1 cells (1 × 10^5) were seeded in a 96-well plate for 24 h. After that, the cells were incubated for 6 days in DMEM containing various concentrations (0–1.0 mg/mL) of the synthetic PP1. Cell toxicity was measured by MTT according to the instructions indicated by the manufacturer. For cell differentiation, 3T3-L1 cells were seeded in 6-well plates at a density of 2 × 10^5 cells/well. Then, the medium was changed by DMEM with insulin (5 μg/mL; Sigma), 1 μM of dexamethasone (Sigma), and 0.5 mM of 3-isobutyl-1-methylxanthine. On day 3, the medium was replaced with DMEM containing insulin (5 μg/mL; Sigma) and 10% (v/v) FBS every 3 days. Various concentrations of the synthetic PP1 were attendant during the whole process of differentiation induction. Oil Red O staining of the intracellular lipids was carried out, as described previously. Moreover, intracellular triacylglycerol levels were measured by using an Assay Triglyceride Kit. Protein concentrations were determined with BCA Protein Assay.

AMPKα = assay: Western blot, AMPKα expression; type: cell-based; settings: PP1 600 μg/mL, 3T3-L1 adipocytes
Procedure: as §1

3T3-L1 adipocytes [3] = assay: Intracellular triacylglycerol in 3T3-L1 adipocytes; type: cell-based; settings: for decrease of intracellular triacylglycerol accumulation: 3T3-L1 cells
Procedure: as §2

C/EBPα = assay: Western blot, C/EBPα expression; type: cell-based; settings: PP1 600 μg/mL, 3T3-L1 adipocytes
Procedure: as §1

[4] = Table 2, Alcalase hydrolysate fractions and positive drugs, mean ± SD, test concentration not given

Molecule | Inhibition of Pancreatic Lipase [1, 4] | SREBP-1c protein level (SREBP-1c) | PPARγ protein level (PPARγ) | differentiation inhibition (3T3-L1 adipocytes [2]; 3T3-L1 pre-adipocytes) | number of intracellular lipid droplets (3T3-L1 adipocytes [2]; Oil Red O, PP1 present during differentiation, compared with model group) | AMPKα protein expression (AMPKα) | Inhibition of Pancreatic Lipase ([1]; synthetic peptide at 200 μg/mL) | decrease of intracellular triacylglycerol accumulation (3T3-L1 adipocytes [3]; PP1 600 μg/mL) | intracellular triacylglycerol level (3T3-L1 adipocytes [3]; PP1 600 μg/mL during differentiation, p < 0.05, mature adipocyte (model) 82.98 ± 11.2, pre-adipocytes 25.98 ± 1.6) | C/EBPα protein level (C/EBPα) | decrease of intracellular triacylglycerol accumulation (3T3-L1 adipocytes [3]; simvastatin 10 μM, positive drug)
CCCCCCCCCCC[C@@H](C[C@@H]1OC(=O)[C@H]1CCCCCC)OC(=O)[C@H](CC(C)C)NC=O [Orlistat] | 88.85 ± 2.42% | – | – | – | – | – | – | – | – | – | –
Leu-Leu-Val-Val-Try-Pro-Trp-Thr-Gln-Arg (LLVVYPWTQR) [PP1, synthetic decapeptide identified from A2 fraction of Alcalase hydrolysate] | – | decreased the levels of C/EBPα, SREBP-1c | decreased the levels of C/EBPα, SREBP-1c, and PPARγ | good differentiation inhibition activity | clearly decreased compared with that in the model group | significantly increased the expression of AMPKα | 47.95% | 27.9% | 59.82 ± 6.78 nmol/mg protein | decreased the levels of C/EBPα | –
CCC(C)(C)C(=O)O[C@H]1C[C@@H](C)C=C2C=C[C@H](C)[C@H](CC[C@@H]3C[C@@H](O)CC(=O)O3)[C@H]21 [simvastatin, reference compound] | 35.2 ± 1.9% | – | – | – | – | – | – | – | – | – | 24.1%
